# Strand notation (5' to 3'): a small letter for the sugar, then the base; units joined by * are phosphorothioate-linked, units joined directly phosphodiester-linked; [ ] holds rarer units or linkages, { } end groups; capitals alone tell only the bases. d = 2'-deoxy (DNA)
# Target: T1, human type II phospholipase A2 (Homo sapiens, UniProt P14555)
# T1 sequence (P14555 21-144): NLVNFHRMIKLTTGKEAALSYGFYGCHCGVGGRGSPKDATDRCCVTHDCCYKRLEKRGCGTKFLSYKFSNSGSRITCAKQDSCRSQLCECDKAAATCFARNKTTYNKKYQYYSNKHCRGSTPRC
# Experiment: Human type II phospholipase A2 enzyme assay (3H-oleic acid labelled E. coli substrate)
# Type: biochemical
# Settings: not given
row,Substance,I.C.50 relative to ISIS 3196 (fold higher)
1,"ISIS 3628: GGAGCCCTfCTATACCCACCC, phosphorothioate, SEQ ID NO 78",approximately 10 fold
2,"ISIS 3631: AGGTCGAGGAGTGGTCTGAGC, phosphorothioate, SEQ ID NO 81 (dA*dG*dG*dT*dC*dG*dA*dG*dG*dA*dG*dT*dG*dG*dT*dC*dT*dG*dA*dG*dC)",approximately 10 fold

# Same assay, conditions: 1 μM; Table 4
row,Substance,% Inhibition (1 μM) [%]
1,"ISIS 3477: GTGGAGGAGAGCAGTAGAAGG, phosphorothioate, SEQ ID NO 73 (dG*dT*dG*dG*dA*dG*dG*dA*dG*dA*dG*dC*dA*dG*dT*dA*dG*dA*dA*dG*dG)",54.7
2,"ISIS 3478: TGGTTAAGCACGGAGTTGAGG, phosphorothioate, SEQ ID NO 74 (dT*dG*dG*dT*dT*dA*dA*dG*dC*dA*dC*dG*dG*dA*dG*dT*dT*dG*dA*dG*dG)",26.4
3,"ISIS 3479: CCGGAGTACAGGTTCTTTGGT, phosphorothioate, SEQ ID NO 75",42.3
4,"ISIS 3480: TTGCTTTATTCAGAAGAGACC, phosphorothioate, SEQ ID NO 76 (dT*dT*dG*dC*dT*dT*dT*dA*dT*dT*dC*dA*dG*dA*dA*dG*dA*dG*dA*dC*dC)",24.5
5,"ISIS 3481: TTTTTGATTTGCTAATTGCTT, phosphorothioate, SEQ ID NO 77 (dT*dT*dT*dT*dT*dG*dA*dT*dT*dT*dG*dC*dT*dA*dA*dT*dT*dG*dC*dT*dT)",2.2
6,"ISIS 3628: GGAGCCCTfCTATACCCACCC, phosphorothioate, SEQ ID NO 78",13.6
7,"ISIS 3629: CACCCCTCGTTGCTGAGTCCC, phosphorothioate, SEQ ID NO 79 (dC*dA*dC*dC*dC*dC*dT*dC*dG*dT*dT*dG*dC*dT*dG*dA*dG*dT*dC*dC*dC)",20.5
8,"ISIS 3630: TCTCATACCCTCCCTCCCTAC, phosphorothioate, SEQ ID NO 80 (dT*dC*dT*dC*dA*dT*dA*dC*dC*dC*dT*dC*dC*dC*dT*dC*dC*dC*dT*dA*dC)",17.6
9,"ISIS 3631: AGGTCGAGGAGTGGTCTGAGC, phosphorothioate, SEQ ID NO 81 (dA*dG*dG*dT*dC*dG*dA*dG*dG*dA*dG*dT*dG*dG*dT*dC*dT*dG*dA*dG*dC)",20.7
10,"ISIS 3632: CCAGGAGAGGTCGGTAAGGCG, phosphorothioate, SEQ ID NO 82 (dC*dC*dA*dG*dG*dA*dG*dA*dG*dG*dT*dC*dG*dG*dT*dA*dA*dG*dG*dC*dG)",29.2
11,"ISIS 3633: GTAGGGATGGGAGTGAAGGAG, phosphorothioate, SEQ ID NO 83 (dG*dT*dA*dG*dG*dG*dA*dT*dG*dG*dG*dA*dG*dT*dG*dA*dA*dG*dG*dA*dG)",58.5
12,"ISIS 3659: TGCTCCTCCTTGGTGGCTCTC, phosphorothioate, SEQ ID NO 84 (dT*dG*dC*dT*dC*dC*dT*dC*dC*dT*dT*dG*dG*dT*dG*dG*dC*dT*dC*dT*dC)",38.2
13,"ISIS 3663: GTCTGCTGGGTGGTCTGAACT, phosphorothioate, SEQ ID NO 85",16.3
14,"ISIS 3665: GGACTGGCCTAGCTCCTCTGC, phosphorothioate, SEQ ID NO 86 (dG*dG*dA*dC*dT*dG*dG*dC*dC*dT*dA*dG*dC*dT*dC*dC*dT*dC*dT*dG*dC)",45.8
15,"ISIS 3669: GGTGACAAATGCAGATGGACT, phosphorothioate, SEQ ID NO 87 (dG*dG*dT*dG*dA*dC*dA*dA*dA*dT*dG*dC*dA*dG*dA*dT*dG*dG*dA*dC*dT)",34.7
16,"ISIS 3671: TAGGAGGGTCTTCATGGTAAG, phosphorothioate, SEQ ID NO 88 (dT*dA*dG*dG*dA*dG*dG*dG*dT*dC*dT*dT*dC*dA*dT*dG*dG*dT*dA*dA*dG)",49.3
17,"ISIS 3676: AGCTCTTACCAAAGATCATGA, phosphorothioate, SEQ ID NO 89 (dA*dG*dC*dT*dC*dT*dT*dA*dC*dC*dA*dA*dA*dG*dA*dT*dC*dA*dT*dG*dA)",24.5
18,"ISIS 3679: AGTAGGCCTGGAAGGAAATTT, phosphorothioate, SEQ ID NO 90 (dA*dG*dT*dA*dG*dG*dC*dC*dT*dG*dG*dA*dA*dG*dG*dA*dA*dA*dT*dT*dT)",30.3

# Same assay, conditions: increasing E. coli substrate; ISIS 3481 at 0.2 μM and 2 μM
row,Substance,effect on substrate kinetics
1,"ISIS 3481: TTTTTGATTTGCTAATTGCTT, phosphorothioate, SEQ ID NO 77 (dT*dT*dT*dT*dT*dG*dA*dT*dT*dT*dG*dC*dT*dA*dA*dT*dT*dG*dC*dT*dT)",did not modify the substrate kinetics

# Source: patent US20070015723A1, “Antiviral oligonucleotides having a conserved G4 core sequence” (priority 1992, published 2007)
